# In PubChem BioAssay AID2060623 (Molecular Pharmacology Branch, DTP, NCI, 2025):
# System: 227483-062-R1-J1-PDC complex spheroids with HUVEC/MSC, viability
# Assay: Anticancer human tumor 227483-062-R1-J1-PDC patient-derived pancreatic carcinoma cell line growth inhibition [CLK]
# Details: for IC50: curve of first compound; for viability, T/C: stronger effect = lower value
# Method in brief: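 Multi-cell-type spheroids combined patient-derived tumor cells with HUVEC endothelial cells and human mesenchymal stem cells. Paired agents were dosed in half-log steps down from about clinical Cmax, or from 10 microM where Cmax was unknown.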
# [1] = second compound 0.0316 µM, first compound 0.0316 µM
# [2] = second compound 0.0316 µM, first compound 0.1 µM
# [3] = second compound 0.0316 µM, first compound 0.316 µM
# [4] = second compound 0.0316 µM, first compound 1 µM
# [5] = second compound 0.1 µM, first compound 0.0316 µM
# [6] = second compound 0.1 µM, first compound 0.1 µM
# [7] = second compound 0.1 µM, first compound 0.316 µM
# [8] = second compound 0.1 µM, first compound 1 µM
# [9] = second compound 0.316 µM, first compound 0.0316 µM
# [10] = second compound 0.316 µM, first compound 0.1 µM
# [11] = second compound 0.316 µM, first compound 0.316 µM
# [12] = second compound 0.316 µM, first compound 1 µM
# [13] = second compound 1 µM, first compound 0.0316 µM
# [14] = second compound 1 µM, first compound 0.1 µM
# [15] = second compound 1 µM, first compound 0.316 µM
# [16] = second compound 1 µM, first compound 1 µM
# [17] = second compound 3.16 µM, first compound 0.0316 µM
# [18] = second compound 3.16 µM, first compound 0.1 µM
# [19] = second compound 3.16 µM, first compound 0.316 µM
# [20] = second compound 3.16 µM, first compound 1 µM
# [21] = second compound 10 µM, first compound 0.0316 µM
# [22] = second compound 10 µM, first compound 0.1 µM
# [23] = second compound 10 µM, first compound 0.316 µM
# [24] = second compound 10 µM, first compound 1 µM
# 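Further: spheroids exposed to compounds for seven days before readout.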
# 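Wherever viability, T/C is given: percent of DMSO vehicle control luminescence as 100% viability.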
smiles,measurement,setting,value
CC(=O)O[C@H]1C(=O)[C@@]2(C)[C@H]([C@H](OC(=O)c3ccccc3)[C@]3(O)C[C@H](OC(=O)[C@H](O)[C@@H](NC(=O)c4ccccc4)c4ccccc4)C(C)=C1C3(C)C)[C@]1(OC(C)=O)CO[C@@H]1C[C@@H]2O + CN1CCN(c2cc(C(=O)Nc3cc4cc(-c5cnn(C)c5)ccc4cn3)ccn2)CC1,IC50,second compound 0.0316 µM,< 31.6 nM
same,IC50,second compound 0.1 µM,< 31.6 nM
same,IC50,second compound 0.316 µM,< 31.6 nM
same,IC50,second compound 1 µM,< 31.6 nM
same,IC50,second compound 3.16 µM,< 31.6 nM
same,IC50,second compound 10 µM,< 31.6 nM
same,"viability, T/C",[1],27.4%
same,"viability, T/C",[2],22.2%
same,"viability, T/C",[3],31.2%
same,"viability, T/C",[4],31.4%
same,"viability, T/C","second compound 0.0316 µM, first compound 3.16 µM",36.9%
same,"viability, T/C","second compound 0.0316 µM, first compound 10 µM",43.8%
same,"viability, T/C",[5],28.6%
same,"viability, T/C",[6],32.8%
same,"viability, T/C",[7],35%
same,"viability, T/C",[8],38%
same,"viability, T/C","second compound 0.1 µM, first compound 3.16 µM",40.7%
same,"viability, T/C","second compound 0.1 µM, first compound 10 µM",40.6%
same,"viability, T/C",[9],2.61%
same,"viability, T/C",[10],6.66%
same,"viability, T/C",[11],2.59%
same,"viability, T/C",[12],4.5%
same,"viability, T/C","second compound 0.316 µM, first compound 3.16 µM",5.51%
same,"viability, T/C","second compound 0.316 µM, first compound 10 µM",6.7%
same,"viability, T/C",[13],1.8%
same,"viability, T/C",[14],2.26%
same,"viability, T/C",[15],3.26%
same,"viability, T/C",[16],4%
same,"viability, T/C","second compound 1 µM, first compound 3.16 µM",1.87%
same,"viability, T/C","second compound 1 µM, first compound 10 µM",2.01%
same,"viability, T/C",[17],7.44%
same,"viability, T/C",[18],3.02%
same,"viability, T/C",[19],3.51%
same,"viability, T/C",[20],2.58%
same,"viability, T/C","second compound 3.16 µM, first compound 3.16 µM",5.48%
same,"viability, T/C","second compound 3.16 µM, first compound 10 µM",4.46%
same,"viability, T/C",[21],1.55%
same,"viability, T/C",[22],1.61%
same,"viability, T/C",[23],1.94%
same,"viability, T/C",[24],1.68%
same,"viability, T/C","second compound 10 µM, first compound 3.16 µM",1.56%
same,"viability, T/C","second compound 10 µM, first compound 10 µM",1.39%
CCc1c2c(nc3ccc(O)cc13)-c1cc3c(c(=O)n1C2)COC(=O)[C@]3(O)CC + CN1CCN(c2cc(C(=O)Nc3cc4cc(-c5cnn(C)c5)ccc4cn3)ccn2)CC1,IC50,second compound 0.0316 µM,276 nM
same,IC50,second compound 0.1 µM,12.9 nM
same,IC50,second compound 0.316 µM,< 3.16 nM
same,IC50,second compound 1 µM,< 3.16 nM
same,IC50,second compound 3.16 µM,< 3.16 nM
same,IC50,second compound 10 µM,< 3.16 nM
same,"viability, T/C","second compound 0.0316 µM, first compound 0.00316 µM",96.7%
same,"viability, T/C","second compound 0.0316 µM, first compound 0.01 µM",99%
same,"viability, T/C",[1],74.9%
same,"viability, T/C",[2],62%
same,"viability, T/C",[3],52.1%
same,"viability, T/C",[4],32.5%
same,"viability, T/C","second compound 0.1 µM, first compound 0.00316 µM",58.4%
same,"viability, T/C","second compound 0.1 µM, first compound 0.01 µM",53.1%
same,"viability, T/C",[5],38.7%
same,"viability, T/C",[6],38.1%
same,"viability, T/C",[7],25.4%
same,"viability, T/C",[8],8.95%
same,"viability, T/C","second compound 0.316 µM, first compound 0.00316 µM",3.53%
same,"viability, T/C","second compound 0.316 µM, first compound 0.01 µM",4.77%
same,"viability, T/C",[9],3.57%
same,"viability, T/C",[10],4.05%
same,"viability, T/C",[11],1.85%
same,"viability, T/C",[12],0.98%
same,"viability, T/C","second compound 1 µM, first compound 0.00316 µM",1.32%
same,"viability, T/C","second compound 1 µM, first compound 0.01 µM",1.1%
same,"viability, T/C",[13],1.61%
same,"viability, T/C",[14],1.38%
same,"viability, T/C",[15],2.57%
same,"viability, T/C",[16],2.01%
same,"viability, T/C","second compound 3.16 µM, first compound 0.00316 µM",4.99%
same,"viability, T/C","second compound 3.16 µM, first compound 0.01 µM",2.04%
same,"viability, T/C",[17],2.02%
same,"viability, T/C",[18],2.48%
same,"viability, T/C",[19],5.26%
same,"viability, T/C",[20],2.04%
same,"viability, T/C","second compound 10 µM, first compound 0.00316 µM",1.98%
same,"viability, T/C","second compound 10 µM, first compound 0.01 µM",1.03%
same,"viability, T/C",[21],0.86%
same,"viability, T/C",[22],2.28%
same,"viability, T/C",[23],0.94%
same,"viability, T/C",[24],0.92%
